Measurements from patent US9586974B2, “Cyclic N-acyl O-amino phenol CBI derivative” (THE SCRIPPS RESEARCH LINSTITUTE, priority 2013, dated 2017).
Like-named read-outs stand apart in the source and are kept apart here.

How the values were obtained:
[1] = Stability in human plasma; type: in vitro ADME
Protocol: Reagents and solvents were purchased reagent-grade and used without further purification. Pooled human plasma, with sodium citrate as an anticoagulant, was purchased from Innovative Research and stored at −20° C. THF was freshly distilled from sodium benzophenone ketyl. All reactions were performed in oven-dried glassware under an Ar atmosphere. Evaporation and concentration in vacuo was performed at 20° C. TLC was conducted using precoated SiO2 60 F254 glass plates from EMD with visualization by UV light (254 or 366 nm). Chiral phase HPLC was performed using a Shimadzu HPLC on a semi-preparative Diacel ChiralCel OD column (0.46 cm×25 cm) with a flow rate of 7 mL/min and with UV detection at λ=254 nm. Optical rotations were determined on a Rudolf Research Analytical Autopol III Automatic Polarimeter (λ=589 nm, 25° C.).

[2] = tested on: L1210 (ATCC CCL-219) mouse lymphocytic leukemia cells; assay: Cell growth inhibition assay (phosphatase readout); type: cell-based
Protocol: Compounds were tested for their cell growth inhibition of L1210 (ATCC CCL-219) mouse lymphocytic leukemia cells. A population of cells (>1×10^6 cells/mL as determined with a hemocytometer) was diluted with an appropriate amount of Dulbecco-modified Eagle Medium (DMEM, Gibco) containing 10% fetal bovine serum (FBS, Gibco) to a final concentration of 30,000 cells/mL. To each well of a 96-well plate (Corning® Costar®), 100 μL of the cell-media solution was added with a multichannel pipette. The cultures were incubated at 37° C. in an atmosphere of 5% CO2 and 95% humidified air for 24 hours. The test compounds were added to the plate as follows: test substances were diluted in DMSO to a concentration of 1 mM and 10-fold serial dilutions were performed on a separate 96-well plate. Fresh culture medium (100 μL) was added to each well of cells to constitute 200 μL of medium per well followed by 2 μL of each test agent. Compounds were tested in duplicate (≧2 times) at six concentrations between 0-100 nM or 0-1000 nM. Following addition, cultures were incubated for an additional 72 hours.
A phosphatase assay was used to establish the IC50 values as follows: the media in each cell was removed and 100 μL of phosphatase solution (100 mg phosphatase substrate in 30 mL 0.1 M NaOAc, pH 5.5, 0.1% Triton® X-100 buffer) was added to each well. The plates were incubated at 37° C. for 5 minutes. After the given incubation time, 50 μL of 0.1 N NaOH was added to each well and the absorption at 405 nm was determined using a 96 well plate reader. As the absorption is directly proportional to the number of living cells, the IC50 values were calculated and the reported values represent of the average of ≧4 determinations (SD±10%).

[3] = not given; remark: listed apart in the source
[4] = Cleavage under reductive conditions; type: physicochemical; settings: H2, Pd/C, MeOH, 23° C., 1 hour or Mo(CO)6, MeCN/H2O, reflux, 3 hours
Excerpt: The greater stability of Compound 12 versus Compound 15 toward nucleophilic cleavage of the N—O bond can be attributed to the increased steric hindrance of the tertiary versus secondary nitrogen consistent with prior observations. [Lajiness et al., J. Med. Chem. 2010, 53:7731-7738]

[5] = tested on: L1210 murine leukemia cells; assay: In vivo antitumor activity, L1210 implanted ip in B6D2F1 mice; parameters: species or system mouse
Protocol: [Wolfe et al., J. Med. Chem. 2012, 55:5878-5886.] Therefore, the preliminary evaluation of the in vivo antitumor activity of the cyclic N—O pro-drugs was assessed with Compound (+)-6 and was conducted alongside seco-CBI-indole2 (Compound 4) in an antitumor model consisting of L1210 murine leukemia cells implanted ip in B6D2F1 mice traditionally used to initially compare new duocarmycin derivatives (Table 3, below).
B6D2F1 mice were injected intraperitoneally (i.p.) with syngeneic L1210 cells (1×10^6) on day 0. Ten mice were randomly assigned to control vehicle or treatment groups for Compounds (+)-4 and (+)-6 at doses of 60, 100, 250, and 500 μg/kg/inj for Compounds (+)-4 or 60, 200, 500, 1000, and 2500 μg/kg/inj for Compounds (+)-6. Compounds (+)-4 and (+)-6 were formulated in 100% DMSO. Both compounds were injected i.p. on days 1, 5, and 9. Following injection of tumor cells, animals were monitored daily and weighed two times per week. Percent survival (T/C) for treated and control groups were determined by dividing the total survival days for each treatment group by the total survival days for the control group and multiplying×100. All animal studies were carried out in the animal facilities of The University of Kansas Medical Center with strict adherence to the guidelines of the IACUC Animal Welfare Committee of KUMC (IACUC approval #2009-1837).

[6] = Stability in acidic media
[7] = Mus musculus, L1210, 72 h, read-out: IC50 L1210 unnatural, unnatural enantiomer, 72 hours
[8] = 60 μg/kg i.p. on days 1, 5 and 9
[9] = 200 μg/kg i.p. on days 1, 5 and 9
[10] = 500 μg/kg i.p. on days 1, 5 and 9
[11] = 1000 μg/kg i.p. on days 1, 5 and 9
[12] = 2500 μg/kg i.p. on days 1, 5 and 9

For `O=C(Nc1ccc2[nH]c(C(=O)N3C[C@@H](CCl)c4c3cc3c5c(cccc45)C(=O)NO3)cc2c1)c1cc2ccccc2[nH]1` [Compound 7, N-(2-(10-(Chloromethyl)-4-oxo-5,8,9,10-tetrahydro-4H-pyrrolo[3′,2′:5,6]naphtho[1,8-de][1,2]oxazine-8-carbonyl)-1H-indol-5-yl)-1H-indole-2-carboxamide], the “t1/2 in human plasma” value [1] was 4 days, the IC50 [2, 7] was 65 nM and the IC50 ([2]; Mus musculus, L1210, natural enantiomer, 72 hours, read-out: IC50 L1210 natural) was 0.3 nM. For the same compound, the “t1/2 in pH 7.0 phosphate buffer” value was 1 week and the “free drug in mouse plasma” value [3] was < 5%.

In the case of `CN1Oc2cc3c(c4cccc(c24)C1=O)[C@H](CCl)CN3C(=O)c1cc2cc(NC(=O)c3cc4ccccc4[nH]3)ccc2[nH]1` [Compound 6, N-(2-(10-(Chloromethyl)-5-methyl-4-oxo-5,8,9,10-tetrahydro-4H-pyrrolo[3′,2′:5,6]naphtho[1,8-de][1,2]oxazine-8-carbonyl)-1H-indol-5-yl)-1H-indole-2-carboxamide], the “cleavage under reductive conditions” value [4] is reported as “rapidly cleaved”, the “t1/2 in human plasma” value [1] is reported as > 1 week and the IC50 [2, 7] is reported as 740 nM. For the same compound, the IC50 ([2]; read-out: IC50 L1210 natural, natural enantiomer, 72 hours) was 0.99 nM, the “MSP (Mean Survival Period)” value [5, 8] was 28 days and the “Surviving Mice (live animals after 366 days)” value (from here on “Surviving Mice”) [5, 8] was 0/10. For the same compound, the “T/C = Treated/Control (MSP) × 100” value [5, 8] was 159, the “MSP (Mean Survival Period)” value [5, 9] was >68 days and the “Surviving Mice” value [5, 9] was 1/10. For the same compound, the “T/C = Treated/Control (MSP) × 100” value [5, 9] was >386, the “MSP (Mean Survival Period)” value [5, 10] was >201 days and the “Surviving Mice” value [5, 10] was 4/10. The “T/C = Treated/Control (MSP) × 100” value [5, 10] was >1142, the “MSP (Mean Survival Period)” value [5, 11] was >199 days and the “Surviving Mice” value [5, 11] was 4/10. For the same compound, the “T/C = Treated/Control (MSP) × 100” value [5, 11] was >1130, the “MSP (Mean Survival Period)” value [5, 12] was >264 days and the “Surviving Mice” value [5, 12] was 6/10. For the same compound, the “T/C = Treated/Control (MSP) × 100” value [5, 12] was >1500, the “t1/2 in pH 7.0 phosphate buffer” value was > 4 weeks and the “half-life in acidic media” value ([6]; 1:1 TFA/CH2Cl2, 23° C.) was 30 h. The “half-life (t1/2) in acidic media” value ([6]; 4 N HCl/EtOAc, 23° C. (12, 15: after initial Boc deprotection)) was > 72 h.
